In brackets after ≈: the same amount, converted by molar mass. Read-outs that look alike come from different tables or passages of the source.
How the values were obtained:
Format in all cases: cell-based
HIV = assay: Inhibition of the HIV-induced cytopathic effect in MT-4 cells (MTT assay); conditions: for EC50: Human immunodeficiency virus 1, MT4, dose achieving 50% protection of HIV-infected MT-4 cells, read-out: ED₅₀ (50% effective dose); for EC50 / ED₅₀ (50% effective dose): MTT, 540 nm; for ED₅₀ (50% effective dose): dose achieving 50% protection of HIV-infected MT-4 cells
Description: (§1) A rapid, sensitive and automated assay procedure was used for the in-vitro evaluation of anti-HIV agents. An […] T4-cell line, MT-4, which was previously shown (Koyanagi et al., Int. J. Cancer, 36, 445-451, 1985) to be highly susceptible to and permissive for HIV infection, served as the target cell line. Inhibition of the HIV-induced cytopathic effect was used as the end point. The viability of both HIV- and mock-infected cells was assessed spectrophotometrically via the in-situ reduction of 3-(4,5-dimethylthiazol-2-yl)-2,5-diphenyltetrazolium bromide (MTT). The 50% cytotoxic dose (CD₅₀ in µg/ml) was defined as the concentration of compound that reduced the absorbance of the mock-infected control sample by 50%. The percent protection achieved by the compound in HIV-infected cells was calculated by the following formula: [formula] whereby (ODT)HIV is the optical density measured with a given concentration of the test compound in HIV-infected cells; (ODC)HIV is the optical density measured for the control untreated HIV-infected cells; (ODC)MOCK is the optical density measured for the control untreated mock-infected cells; all optical density values were determined at 540 nm. The dose achieving 50% protection according to the above formula was defined as the 50% effective dose (ED₅₀ in µg/ml). The ratio of CD₅₀ to ED₅₀ was defined as the selectivity index (SI).

in vitro = conditions: human, mt-4 cells, CD₅₀ (50% cytotoxic dose)
Description: as §1

mock-infected MT-4 cells = assay: in vitro; conditions: human
Description: as §1

C=C(C)CN1Cc2cccc3[nH]c(=S)n(c23)C[C@@H]1C [compound 8]
EC50 (HIV): 0.0126 µg/mL (≈ 0.0461 µM) | SI (selectivity index) (HIV; ratio of CD₅₀ to ED₅₀): 365 | CC50 (in vitro): 4.6 µg/mL (≈ 16.8 µM)

CC(C)=CCN1Cc2cccc3[nH]c(=S)n(c23)C[C@@H]1C [compound 5, (+)-(S)-4,5,6,7-tetrahydro-5-methyl-6-(3-methyl-2-butenyl)imidazo[4,5,1-jk] [1,4]benzodiazepine-2(1H)-thione]
EC50 (HIV): 0.008 µg/mL (≈ 0.0278 µM) | SI (selectivity index) (HIV; ratio of CD₅₀ to ED₅₀): 40625 | CC50 (in vitro): 325 µg/mL (≈ 1130 µM)

CC(C)=CCN1Cc2cc(Cl)cc3[nH]c(=S)n(c23)C[C@@H]1C [compound 7]
SI (selectivity index) (HIV): 12778 | ED₅₀ (50% effective dose) (HIV): 0.0018 µg/mL | CD₅₀ (50% cytotoxic dose) (mock-infected MT-4 cells): 23 µg/mL

C[C@H]1Cn2c(=S)[nH]c3cccc(c32)CN1CC1CC1 [compound 9]
EC50 (HIV): 0.0166 µg/mL (≈ 0.0607 µM) | SI (selectivity index) (HIV; ratio of CD₅₀ to ED₅₀): >15029 | CC50 (in vitro): > 250 µg/mL

CC(C)=CCN1Cc2cc(Cl)cc3[nH]c(=S)n(c23)C[C@@H]1C [compound 3, (+)-(S)-9-chloro-4,5,6,7-tetrahydro-5-methyl-6-(3-methyl-2-butenyl)imidazo[4,5,1-jk][1,4]benzodiazepine-2(1H)-thione]
SI (selectivity index) (HIV): 20400 | ED₅₀ (50% effective dose) (HIV): 0.0005 µg/mL | CD₅₀ (50% cytotoxic dose) (mock-infected MT-4 cells): 10 µg/mL

CC(C)=CCN1Cc2cccc3[nH]c(=S)n(c23)CC1C (racemic) [compound 4, (±)-4,5,6,7-tetrahydro-5-methyl-6-(3-methyl-2-butenyl)imidazo[4,5,1-jk][1,4]benzodiazepine-2(1H)-thione]
EC50 (HIV): 0.013 µg/mL (≈ 0.0452 µM) | SI (selectivity index) (HIV; ratio of CD₅₀ to ED₅₀): 1923 | CC50 (in vitro): 25 µg/mL (≈ 87 µM)

CCCN1Cc2cccc3[nH]c(=S)n(c23)CC1C (stereo not drawn) [compound 1, 4,5,6,7-tetrahydro-5-methyl-6-propylimidazo-[4.5.1-jk][1,4]benzodiazepine-2(1H)-thione]
EC50 (HIV): 0.155 µg/mL (≈ 0.593 µM) | SI (selectivity index) (HIV; ratio of CD₅₀ to ED₅₀): 948 | CC50 (in vitro): 147 µg/mL (≈ 562 µM)

CC(C)=CCN1Cc2cccc3[nH]c(=S)n(c23)C[C@H]1C [compound 6]
EC50 (HIV): 0.045 µg/mL (≈ 0.157 µM) | SI (selectivity index) (HIV; ratio of CD₅₀ to ED₅₀): ≧5555 | CC50 (in vitro): ≥ 250 µg/mL
